# According to patent publication US7671061B2, “Methods and compositions for treating pain” (Hydra Biosciences, Inc., priority 2005, dated 2010):
# Target: T1, hTRPA1 (Homo sapiens, UniProt O75762, K186N)
# T1 construct: expressed in transfected cells; host or cells: HEK293/TREx (Invitrogen), induced with tetracycline
# Experiment: High throughput Ca2+ fluorescence (Fluo4) assay, AITC stimulation
# Assay type: cell-based
# Conditions: Table 1; read-out: hTRPA1 Fluo4 IC50
# Excerpt: The assay depended on detection of the rise in intracellular Ca^2+ concentration ([Ca^2+]i) following channel activation in cells inducibly expressing the TRPA1 channel. Ca^2+ rise was quantified with the use of fluorescent Ca^2+ indicators that were loaded into cells and thereafter indicated the [Ca^2+]i. Ca^2+ influx followed activation of the TRPA1 channel. Compounds inhibiting the [Ca^2+]i rise were considered hits for further investigation.
# These cells were maintained in the growth medium recommended by the manufacturer supplemented with 100 μg/ml hygromycin to promote retention of the TRPA1 construct. After growing to near confluency, cells were plated at a density of ˜25,000 cells/well in 384 well CellBind plates (Corning) in the presence of 1 μg/ml tetracycline, and allowed to grow for 20-30 hrs. A nearly confluent monolayer resulted. Cells were then loaded with Ca^2+ dye: Fura-2/AM or Fluo4/AM was added to the wells to a final concentration of 2 μM or 1 μM, respectively, and incubated for 80 min or 60 min, respectively, at room temperature. […] Frames were acquired at a rate of 0.2 Hz. During the assay, the plates were continuously […], with pipette mixing of wells following addition of each reagent. For the screening assay, 13 μl of a diluted stock (at 50 μM) was added to each well for 2 minutes following the collection of a short (4 frame) baseline. […] Data was collected for ˜3 minutes following addition of AITC, where the fluorescent intensity (for Fluo4) and the F340/F380 ratio (for Fura-2) were proportional to the [Ca^2+]i. Negative controls consisted of HEK293/TREx TRPA1 cells exposed to AITC, but no compound. […] These controls defined a screening window, and “hits” were defined as those compounds inhibiting the fluorescence response by at least 40%. IC50 values were determined for compounds defined as “hits.” The Fluo4 cell-based fluorescence assay was used to determine the intracellular Ca^2+ concentration in the presence of varying drug concentration. […] Compounds were tested in triplicate at all concentrations. Standard software was used to fit IC50 curves.
# T1 sequence (O75762 whole entry K186N): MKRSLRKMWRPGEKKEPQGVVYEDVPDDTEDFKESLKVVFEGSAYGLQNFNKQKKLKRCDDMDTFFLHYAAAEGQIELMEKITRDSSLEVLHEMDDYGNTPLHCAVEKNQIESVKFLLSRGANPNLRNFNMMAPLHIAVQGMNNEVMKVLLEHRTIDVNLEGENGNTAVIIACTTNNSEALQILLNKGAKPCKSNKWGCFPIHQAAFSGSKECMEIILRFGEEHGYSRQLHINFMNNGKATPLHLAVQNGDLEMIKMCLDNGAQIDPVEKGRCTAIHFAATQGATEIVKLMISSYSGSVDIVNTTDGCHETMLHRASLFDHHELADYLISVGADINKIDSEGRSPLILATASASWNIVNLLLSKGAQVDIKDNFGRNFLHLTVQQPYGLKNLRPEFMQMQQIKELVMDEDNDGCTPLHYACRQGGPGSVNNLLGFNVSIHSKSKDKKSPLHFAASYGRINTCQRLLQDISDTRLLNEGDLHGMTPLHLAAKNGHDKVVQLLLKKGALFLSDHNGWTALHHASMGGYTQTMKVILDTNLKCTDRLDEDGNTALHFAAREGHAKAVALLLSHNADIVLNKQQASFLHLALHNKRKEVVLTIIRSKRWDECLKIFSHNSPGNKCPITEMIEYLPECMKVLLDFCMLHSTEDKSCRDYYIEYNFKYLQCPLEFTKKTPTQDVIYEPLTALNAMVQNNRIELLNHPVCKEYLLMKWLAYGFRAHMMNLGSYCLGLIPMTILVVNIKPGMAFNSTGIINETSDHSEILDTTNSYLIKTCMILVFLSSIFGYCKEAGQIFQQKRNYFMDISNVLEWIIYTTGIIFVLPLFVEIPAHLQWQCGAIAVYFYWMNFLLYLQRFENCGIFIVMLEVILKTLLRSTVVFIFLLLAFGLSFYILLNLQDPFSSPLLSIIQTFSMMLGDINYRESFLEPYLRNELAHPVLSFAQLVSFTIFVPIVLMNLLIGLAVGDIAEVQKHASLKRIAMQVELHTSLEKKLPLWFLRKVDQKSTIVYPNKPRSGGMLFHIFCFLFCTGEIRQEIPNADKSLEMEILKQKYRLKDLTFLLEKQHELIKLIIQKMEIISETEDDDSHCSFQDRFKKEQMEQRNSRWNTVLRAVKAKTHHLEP
row,Compound,IC50 [µM]
1,CC1=C(C(=O)N2CCOCC2)C(c2ccc(Cl)cc2)NC(=O)N1 (stereo not shown),> 10
2,CC1=C(C(=O)OC(C)C)C(c2c(O)ccc3ccccc23)NC(=S)N1 (stereo not shown),> 10
3,CCOC(=O)C1=C(C)NC(=S)NC1c1ccc(O)cc1 (stereo not shown),> 10
4,CCOC(=O)C1=C(c2ccccc2)NC(=S)NC1c1ccc(OCC)cc1 (stereo not shown),> 10
5,CCOC(=O)C1=C(c2ccccc2)NC(=O)NC1c1ccccc1F (stereo not shown),> 10
6,CC1=C(C(=O)OC2CCCCCC2)C(c2cccc(C)c2)NC(=O)N1 (stereo not shown),> 10
7,CC1=C(C(=O)OC2CCCC2)C(c2ccccc2Br)NC(=O)N1 (stereo not shown),> 10
8,CC1=C(C(=O)OC(C)C)C(c2c(Cl)cccc2Cl)NC(=O)N1 (stereo not shown),> 10
9,COC(=O)C1=C(C)N(C)C(=O)NC1c1cccc(Cl)c1Cl (stereo not shown),> 10
10,CC1=C(C(=O)OCc2ccccc2)C(c2ccc(C(C)C)cc2)NC(=O)N1 (stereo not shown),> 10
11,CC1=C(C(=O)OCc2ccccc2)C(c2c(F)cccc2Cl)NC(=O)N1 (stereo not shown),> 10
12,COC(=O)C1=C(C)NC(=S)NC1c1ccccc1C (stereo not shown),≥ 30
13,CC1=C(C(=O)N(C)C)C(c2ccccc2)NC(=S)N1 (stereo not shown),> 10
14,COc1cccc(C2NC(=S)NC(C)=C2C(=O)N(C)C)c1OC (stereo not shown),> 10
15,COc1cc(Br)cc(C2NC(=S)NC(C)=C2C(=O)N(C)C)c1OC (stereo not shown),> 10
16,CC1=C(C(=O)N(C)C)C(c2ccccc2F)NC(=S)N1 (stereo not shown),> 10
17,CC1=C(C(=O)OCC(C)C)C(c2c(F)cccc2Cl)NC(=O)N1C (stereo not shown),≤ 10
18,COCCOC(=O)C1=C(C)NC(=S)NC1c1ccc(C(C)C)cc1 (stereo not shown),> 10
19,CCN(CC)C(=O)C1=C(C)NC(=S)NC1c1cc(C)c(OC)cc1C (stereo not shown),> 10
20,CCN(CC)C(=O)C1=C(C)NC(=S)NC1c1ccc(C)cc1 (stereo not shown),> 10
21,CCN(CC)C(=O)C1=C(C)NC(=S)NC1c1cc(OC)ccc1OC (stereo not shown),> 10

row,Compound,IC50 [µM]
1,CCN(CC)C(=O)C1=C(C)NC(=S)NC1c1ccccc1OC (stereo not shown),> 10
2,CCOC(=O)C1=C(C)N(C)C(=S)NC1c1cccc(Cl)c1Cl (stereo not shown),> 10
3,CCN(CC)C(=O)C1=C(C)NC(=O)NC1c1c(F)cccc1Cl (stereo not shown),> 10
4,CCN(CC)C(=O)C1=C(C)NC(=S)NC1c1ccc(Br)cc1 (stereo not shown),> 10
5,C=CCOC(=O)C1=C(C)NC(=S)NC1c1cccc(OC)c1 (stereo not shown),≤ 10
6,CCN1C(=O)NC(c2c(F)cccc2Cl)C(C(=O)OC)=C1C (stereo not shown),> 10
7,C=CCOC(=O)C1=C(C)NC(=S)NC1c1ccccc1F (stereo not shown),> 10
8,CCN(CC)C(=O)C1=C(C)NC(=S)NC1c1ccccc1F (stereo not shown),> 10
9,CSc1ccc(C2NC(=O)NC(C)=C2C(=O)OCc2ccccc2)cc1 (stereo not shown),> 10
10,CCOc1ccc(C2NC(=S)NC(C)=C2C(=O)OC(C)C)cc1 (stereo not shown),> 10
11,CCOC(=O)C1=C(C)NC(=S)NC1c1cccc(OC2CCCC2)c1 (stereo not shown),≤ 5
12,CCN1C(=O)NC(c2ccccc2Br)C(C(=O)OC)=C1C (stereo not shown),> 10
13,CCN1C(=O)NC(c2cc(C)ccc2C)C(C(=O)OC)=C1C (stereo not shown),> 10
14,CCOC(=O)C1=C(CN2CCCCC2)NC(=O)NC1c1cc(C)ccc1C (stereo not shown),> 10
15,CCOC(=O)C1=C(CN2CCC(C)CC2)NC(=O)NC1c1ccc(Cl)cc1 (stereo not shown),> 10
16,COC(=O)C1=C(CN2CCN(C)CC2)NC(=O)NC1c1cc(C)ccc1C (stereo not shown),> 10
17,CCOC(=O)C1=C(CN2CCc3ccccc32)NC(=O)NC1c1ccc(Cl)cc1 (stereo not shown),≤ 10
18,COC(=O)C1=C(CN2CCCCC2)NC(=O)NC1c1ccc(C)cc1C (stereo not shown),> 10
19,COC(=O)C1=C(CN2CCc3ccccc32)NC(=O)NC1c1cc(C)ccc1C (stereo not shown),> 10
20,CCN(CC)C(=O)C1=C(C)NC(=O)NC1c1ccc(OC)c(Cl)c1 (stereo not shown),> 10

# Continued, values first:
row,IC50 [µM],Compound
1,≤ 5,CC1=C(C(=O)N2CCOCC2)C(c2cccc(F)c2)NC(=O)N1 (stereo not shown)
2,≤ 5,CCOC(=O)C1=C(c2ccccc2)NC(=S)NC1c1ccc(SC)cc1 (stereo not shown)
3,> 10,CCOC(=O)C1=C(c2ccccc2)NC(=S)NC1c1cccc(OC)c1OC (stereo not shown)
4,> 10,COc1cccc(C2NC(=S)NC(C)=C2C(=O)OCc2ccccc2)c1 (stereo not shown)
5,> 10,CCOC(=O)C1=C(c2ccccc2)NC(=S)NC1c1ccccc1OC (stereo not shown)
6,> 10,CC1=C(C(=O)OC(C)(C)C)C(c2ccc(Br)cc2)NC(=O)N1 (stereo not shown)
7,> 10,CC1=C(C(=O)OC(C)(C)C)C(c2cccc(Cl)c2)NC(=O)N1 (stereo not shown)
8,> 10,COC(=O)C1=C(C)NC(=S)NC1c1ccccc1OC(C)C (stereo not shown)
9,> 10,CCC(C)OC(=O)C1=C(C)NC(=O)NC1c1ccc(F)c(Br)c1 (stereo not shown)
10,> 10,CC1=C(C(=O)OC(C)C)C(c2ccc(F)c(Br)c2)NC(=O)N1 (stereo not shown)
11,> 10,CCCOC(=O)C1=C(C)NC(=O)NC1c1ccccc1Br (stereo not shown)
12,> 10,CCCC1=C(C(=O)OCC)C(c2ccc([N+](=O)[O-])cc2)NC(=O)N1C (stereo not shown)
13,> 10,COC(=O)C1=C(C)NC(=O)NC1c1ccc(F)c(Br)c1 (stereo not shown)
14,> 10,CCCC1=C(C(=O)OCC)C(c2ccc(C(F)(F)F)cc2)NC(=O)N1C (stereo not shown)
15,> 10,CC1=C(C(=O)OC(C)C)C(c2ccc(C(C)(C)C)cc2)NC(=O)N1 (stereo not shown)
16,> 10,CC1=C(C(=O)OC(C)C)C(c2c(F)cccc2Cl)NC(=O)N1 (stereo not shown)
17,> 10,COC(=O)C1=C(C)N(C)C(=O)NC1c1cccc(C)c1 (stereo not shown)
18,> 10,C=CCOC(=O)C1=C(C)NC(=O)NC1c1c(Cl)cccc1Cl (stereo not shown)
19,> 10,C=CCOC(=O)C1=C(C)NC(=O)NC1c1ccc(C(C)(C)C)cc1 (stereo not shown)
20,> 10,C=CCOC(=O)C1=C(C)NC(=O)NC1c1c(F)cccc1Cl (stereo not shown)
21,> 10,COc1cc(OC)c(C2NC(=S)NC(C)=C2C(=O)N(C)C)cc1Br (stereo not shown)
22,> 10,CC1=C(C(=O)N(C)C)C(c2c(F)cccc2Cl)NC(=S)N1 (stereo not shown)
23,> 10,COc1cc2c(cc1C1NC(=S)NC(C)=C1C(=O)N(C)C)CCCC2 (stereo not shown)

row,IC50 [µM],Compound
1,> 10,CC1=C(C(=O)N(C)C)C(c2ccc(C)cc2)NC(=S)N1 (stereo not shown)
2,> 10,COC(=O)C1=C(C)N(C)C(=S)NC1c1ccccc1OC (stereo not shown)
3,> 10,CCN(CC)C(=O)C1=C(C)NC(=S)NC1c1ccccc1Cl (stereo not shown)
4,> 10,CCN(CC)C(=O)C1=C(C)NC(=S)NC1c1ccc(OC)cc1 (stereo not shown)
5,> 10,CCN(CC)C(=O)C1=C(C)NC(=S)NC1c1cc(Br)cc(OC)c1OC (stereo not shown)
6,> 10,CCN(CC)C(=O)C1=C(C)NC(=S)NC1c1ccc(OC)cc1OC (stereo not shown)
7,≤ 5,COC(=O)C1=C(C)N(C)C(=S)NC1c1cccc(Cl)c1Cl (stereo not shown)
8,> 10,COC(=O)C1=C(C)N(C)C(=O)NC1c1c(F)cccc1Cl (stereo not shown)
9,> 10,CCN(CC)C(=O)C1=C(C)NC(=S)NC1c1ccccc1 (stereo not shown)
10,> 10,COC(=O)C1=C(C)N(C)C(=O)NC1c1ccccc1C (stereo not shown)
11,> 10,COC(=O)C1=C(C)N(C)C(=O)NC1c1c(Cl)cccc1Cl (stereo not shown)
12,> 10,CC1=C(C(=O)OC2CCCC2)C(c2ccc(C)c(Br)c2)NC(=O)N1 (stereo not shown)
13,> 10,CCN1C(=O)NC(c2ccc(Cl)cc2Cl)C(C(=O)OC)=C1C (stereo not shown)
14,> 10,CCOC(=O)C1=C(C)NC(=S)NC1c1ccccc1OC1CCCC1 (stereo not shown)
15,> 10,CCOC(=O)C1=C(CN2CCN(C)CC2)NC(=O)NC1c1ccc(Cl)cc1 (stereo not shown)
16,> 10,CCOC(=O)C1=C(CN2CCN(C)CC2)NC(=O)NC1c1cc(C)ccc1C (stereo not shown)
17,> 10,CCOC(=O)C1=C(CN2CCc3ccccc32)NC(=O)NC1c1cc(C)ccc1C (stereo not shown)
18,> 10,CCOC(=O)C1=C(CN2CCc3ccccc32)NC(=O)NC1c1cccc([N+](=O)[O-])c1 (stereo not shown)
19,> 10,CCOC(=O)C1=C(C)NC(=S)NC1c1ccc(C)cc1C (stereo not shown)
20,> 10,CCOC(=O)C1=C(CN2CC(C)CC(C)C2)NC(=O)NC1c1ccc(Cl)cc1 (stereo not shown)
21,> 10,COC(=O)C1=C(CN2CCCC2)NC(=O)NC1c1cc(C)ccc1C (stereo not shown)
22,> 10,CCOC(=O)C1=C(C(C)C)NC(=O)NC1c1ccc(F)cc1 (stereo not shown)

# Same assay, conditions: Table 2; read-out: hTRPA1 Fluor IC50
row,Compound,IC50 [µM]
1,CCNC(=O)Cn1cnc2c1c(=O)n(C)c(=O)n2C [Compound 216],> 10
2,Cn1c(=O)c2c(ncn2CC(=O)NC2CCCC2)n(C)c1=O [Compound 218],> 10
3,CC(NC(=O)Cn1cnc2c1c(=O)n(C)c(=O)n2C)c1ccccc1 (stereo not shown) [Compound 220],> 10
4,Cn1c(=O)c2c(ncn2CC(=O)Nc2ccccc2Cl)n(C)c1=O [Compound 221],> 10
5,Cc1ccc(NC(=O)Cn2cnc3c2c(=O)n(C)c(=O)n3C)c([N+](=O)[O-])c1 [Compound 222],> 10
6,Cn1c(=O)c2c(ncn2CC(=O)Nc2cccc([N+](=O)[O-])c2)n(C)c1=O [Compound 223],≤ 10
7,Cn1c(=O)c2c(ncn2CC(=O)Nc2cccc3ccccc23)n(C)c1=O [Compound 231],> 10
8,Cn1c(=O)c2c(ncn2CC(=O)NCCc2ccccn2)n(C)c1=O [Compound 241],> 10

# Next, values leading:
row,IC50 [µM],Compound
1,≥ 30,Cc1cc([N+](=O)[O-])ccc1NC(=O)Cn1cnc2c1c(=O)n(C)c(=O)n2C [Compound 227]
2,> 10,Cn1c(=O)c2c(ncn2CC(=O)NCc2ccc(F)cc2)n(C)c1=O [Compound 238]
3,> 10,Cn1c(=O)c2c(ncn2CC(=O)NCc2ccncc2)n(C)c1=O [Compound 242]
